The supplement of paper PMC10307832

Assays:
Assay in all cases: relative viability (nuclei count vs DMSO), 5 days (fraction); higher = more cells survive
[1] = compound: C=CC(=O)Nc1cc(-n2c(=O)ccc3cnc4ccc(-c5ccc(NS(C)(=O)=O)cc5)cc4c32)ccc1C [BMX-IN-1] + CS(=O)(=O)N1CCN(Cc2cc3nc(-c4cccc5[nH]ncc45)nc(N4CCOCC4)c3s2)CC1 [Pictilisib] (partner 1 µM)
Method in brief: (§1)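 Cells from lung cancer lines were seeded into 1536-well plates and, one day later, dosed by pin tool. Treatments were either a single drug or a fixed dose of an anchor drug with five library-drug doses (not always all listed) in √10 steps. After 5 days, nuclei were stained in a one-step fixation (final 0.05% Triton X-100, 1% formaldehyde, 1 ug/ml Hoechst) and counted on 4× images, and relative viability is the treated-to-vehicle nuclei ratio, as the median of duplicate plates.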

[2] = compound: C=CC(=O)N1CCC[C@@H](n2nc(-c3ccc(Oc4ccccc4)cc3)c3c(N)ncnc32)C1 [Ibrutinib] + C[C@]1(O)C[C@@H](c2nc(-c3ccc4ccc(-c5ccccc5)nc4c3)c3c(N)nccn32)C1 [Linsitinib] (partner 1 µM)
Method in brief: as §1

[3] = compound: C=CCc1cccc(/C=N/NC(=O)CN2CCN(Cc3ccccc3)CC2)c1O [PAC-1] + COc1cccc2cc(-c3nc([C@H]4CC[C@H](C(=O)O)CC4)n4ncnc(N)c34)[nH]c12 [OSI-027] (partner 0.5 µM)
Method in brief: as §1

[4] = compound: C=CC(=O)Nc1cc(-n2c(=O)ccc3cnc4ccc(-c5ccc(NS(C)(=O)=O)cc5)cc4c32)ccc1C [BMX-IN-1] + Nc1nc2[nH]cc(CCc3ccc(C(=O)N[C@@H](CCC(=O)O)C(=O)O)cc3)c2c(=O)[nH]1 [Pemetrexed] (partner 0.2 µM)
Method in brief: as §1

| Cell Line | relative viability ([1]; first compound 0.02 µM) | relative viability ([1]; first compound 0.2 µM) | relative viability ([1]; first compound 0.6325 µM) | relative viability ([1]; first compound 2 µM) | relative viability ([2]; first compound 0.005 µM) | relative viability ([2]; first compound 0.01581 µM) | relative viability ([2]; first compound 0.05 µM) | relative viability ([2]; first compound 0.1581 µM) | relative viability ([2]; first compound 0.5 µM) | relative viability ([3]; first compound 0.02 µM) | relative viability ([3]; first compound 0.06325 µM) | relative viability ([3]; first compound 0.2 µM) | relative viability ([3]; first compound 2 µM) | relative viability ([4]; first compound 0.02 µM) | relative viability ([4]; first compound 0.2 µM) | relative viability ([4]; first compound 0.6325 µM) | relative viability ([4]; first compound 2 µM) |
| --- | --- | --- | --- | --- | --- | --- | --- | --- | --- | --- | --- | --- | --- | --- | --- | --- | --- |
| EKVX | 0.522 | 0.439 | 0.442 | 0.404 | 0.893 | 0.944 | 1.12 | 1.05 | 0.613 | 0.744 | 0.674 | 0.696 | 0.702 | 0.56 | 0.448 | 0.464 | 0.452 |
| EMC-BAC-2 | 0.556 | 0.562 | 0.621 | 0.506 | 0.777 | 0.703 | 0.637 | 0.795 | 0.586 | 0.367 | 0.363 | 0.371 | 0.382 | 0.448 | 0.486 | 0.466 | 0.44 |
| EPLC-272H | 0.35 | 0.31 | 0.304 | 0.377 |  | 1.07 | 1.31 | 1.25 | 0.771 | 0.312 | 0.27 | 0.22 | 0.262 | 0.304 | 0.278 | 0.235 | 0.316 |
| H3255 | 0.437 | 0.461 | 0.592 | 0.488 | 0.925 | 0.772 | 0.685 | 1.06 | 0.227 | 0.604 | 0.487 | 0.558 | 0.611 | 0.52 | 0.583 | 0.686 | 0.563 |
| HARA | 0.4 | 0.284 | 0.482 | 0.397 | 1.09 | 0.818 | 0.751 | 0.904 |  | 0.487 | 0.54 | 0.426 | 0.504 | 0.257 | 0.271 | 0.282 | 0.255 |
| HCC-15 | 0.721 | 0.818 | 0.798 | 0.844 | 0.883 | 0.85 | 0.935 | 0.89 | 0.835 | 0.668 | 0.726 | 0.672 | 0.684 | 0.2 | 0.218 | 0.192 | 0.218 |
| HCC-44 | 0.732 | 0.687 | 0.836 | 0.622 | 0.682 | 0.591 | 0.673 | 0.732 | 0.645 | 0.486 | 0.62 | 0.607 | 0.585 | 0.727 | 0.663 | 0.625 | 0.678 |
| HCC-78 | 0.214 | 0.18 | 0.242 | 0.249 | 0.555 | 0.489 | 0.432 | 0.485 | 0.33 | 0.336 | 0.335 | 0.376 | 0.396 | 0.971 | 0.989 | 0.935 | 0.913 |
| HCC-366 | 0.124 | 0.666 | 0.137 | 0.16 | 0.634 | 0.614 | 0.662 | 0.51 | 0.614 | 0.946 | 0.863 | 0.894 | 1.26 | 0.163 | 0.183 | 0.165 | 0.202 |
